Results on four molecules are retold here after paper PMC10290130, “The potential of phenothiazinium dyes as cytotoxicity markers in cisplatin-treated cells” (Scientific Reports, 2023).

Each structure is given as a SMILES string. Like-named read-outs stand apart in the source and are kept apart here. Where only a bound is given, the exact number is not on record here.

In data set [1] the test system is Vero cells. The following applies: 72 h of incubation; cited from earlier work.
Data set [2] relates to Vero cells and fibroblasts. Nature of the data set: DMSO cytotoxicity, 72 h, read with phenothiazinium dyes, NR or MTT. In kind it is cell-based, African green monkey; human. The following applies: DMSO in concentrations above 5%. How it is done: (§1) Cells were treated with either DMSO (Vero cells and primary fibroblasts) or cisplatin (LLC-MK2, MCF 10A, and MDA-MB-231). […] After treatment with DMSO and cisplatin, labeling with MTT or NR was performed as described previously[27],[28] with modifications[29],[30]. Cells incubated with phenothiazinium dyes were processed by the same protocol used for NR. […] The cells incubated with MTT were diluted with 100 µl of DMSO. The plates were read at 540 nm (NR) or 570 nm (MTT) in an ELISA reader (Epoch Biotek). Three (LLC-MK2 and MDA-MB-231) and two (Vero cells, human primary fibroblasts and MCF 10A) independent experiments were performed.
(§2) Values for area under the curve were calculated with GraphPad Prism 8.0 software (San Diego, California USA). For cells incubated with DMSO or cisplatin, the percentage of inhibition was calculated from the absorbance of treated samples relative to their non-treated controls. These values were used to calculate the half-maximal inhibitory concentration (IC50) of cisplatin and DMSO, which was done with Compusyn software (version 1.0)[31].

For data set [3], the system named is Vero cells. Nature of the data set: Light microscopy of phenothiazinium dye accumulation in cells. In kind it is cell-based, African green monkey. The following applies: during incubation with cells; phenothiazinium dyes 100 µM, NR 50 µg/ml. How it is done:
The accumulation of phenothiazine dyes in cells was detected by light and confocal microscopies. Firstly, Vero cells were incubated with MB, NMB, TBO, and DMMB (100, 50, 25 and 12.5 µM) for 3 h, 37 °C, 5% CO2 and washed with PBS. […] For confocal detection of phenothiazinium dyes, Vero cell cultures were incubated with 10 μM of MB, NMB, TBO or DMMB for 30 min, 37 °C, with 5% CO2. For all procedures, non-treated controls were incubated with RPMI under the same conditions. The cultures were washed with PBS and treated with trypsin for 10 min, 37 °C and 5% CO2. The cells were transferred to slides and analyzed by confocal microscopy with excitation/emission wavelengths of 543/600 nm, respectively.

Details of data set [4]: method as in PMID 23758207. The following applies: cited from earlier work.
Data set [5] deals with MDA-MB-231. More on the design: method as in PMID 33261142. The following applies: read-out: concentration inhibiting 50% of growth; cited from earlier work.
Data set [6] concerns LLC-MK2. Nature of the data set: Cisplatin cytotoxicity, 72 h, read with phenothiazinium dyes, NR or MTT. Type of data set: cell-based, rhesus monkey. How it is done:
as §1, §2

The test system of data set [7] is MDA-MB-231. Described as above. In kind it is cell-based, human. How it is done: as §1, §2
Data set [8] relates to MCF 10A. The data set is described as above. In kind it is cell-based, human. How it is done:
as §1, §2

Turning to `Cc1cc(N(C)C)cc2[s+]c3cc(N(C)C)cc(C)c3nc12.[Cl-]` [DMMB, 3,7-bis(dimethylamino)-1,9-dimethylphenothiazin-5-ium chloride], in data set [1], the “concentrations with toxic effects” value was “below 10 µM”.
In turn, `C[S+](C)[O-]` [DMSO, dimethyl sulfoxide] gave a cell inhibition in data set [2] above 70%.
Regarding `Cc1cc2nc3ccc(N(C)C)cc3nc2cc1N.Cl` [NR, 3-amino-7-dimethylamino-2-methylphenazine hydrochloride], the “dye precipitation / crystal formation” value in data set [3] is “Crystals of NR formed”. The pKa (in general, the negative logarithm of the acid dissociation constant) in data set [4] is 6.9. For the same molecule, in data set [4] (free base state), the log P – broadly, a log measure of how a compound divides between an organic and an aqueous phase – is reported as 1.9.
For `N.N.[Cl][Pt][Cl]` [cisplatin, cis-diammineplatinum (II) dichloride], the IC50 in data set [5] is 6 µM; in data set [6] (indicator DMMB), 29.5 µM; in data set [6] (indicator MB) it was 19 µM; in data set [6] (indicator MTT), 25.2 µM; in data set [6] (indicator NMB), 28.2 µM; in data set [6] (indicator NR) it was 34.9 µM. For the same molecule, the IC50 is 30.4 µM in data set [6] (indicator TBO); 1.83 µM in data set [7] (indicator NMB); 8.44 µM in data set [7] (indicator NR); 14.8 µM in data set [8] (indicator DMMB); 9.26 µM in data set [8] (indicator MB); 11.9 µM in data set [8] (indicator MTT). Moreover, the IC50 in data set [8] (indicator NMB) is 17.1 µM; in data set [8] (indicator NR), 13.5 µM; in data set [8] (indicator TBO), 14.6 µM. Also, the “concentrations at which cells were resistant” value in data set [6] was below 50 µM; in data set [8], “below 25 µM”. The cell inhibition entry in data set [7] (cisplatin at concentrations above 12.5 µM) is “more than 50%”.
